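All cell lines were grown in 96-well plates and treated with compound for 48 hours. Here, GI50 denotes the concentration required for 50% inhibition of growth.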 Calls of active or inactive are those of the source. No stated cut-off is given here; in the data, active = GI50 up to about 1.1 µM and inactive = higher.
Columns and labels:
Assay in all cases: DTP human tumour cell line panel, 48 h
A549 = tested on: A549
MCF7 = tested on: MCF7
NCI-H226 = tested on: NCI-H226
NCI-H522 = tested on: NCI-H522
CCRF-CEM = tested on: CCRF-CEM
MOLT-4 = tested on: MOLT-4
NCI-H23 = tested on: NCI-H23
DU-145 = tested on: DU-145
NCI/ADR-RES = tested on: NCI/ADR-RES
M14 = tested on: M14
SW-620 = tested on: SW-620
Hs-578T = tested on: Hs-578T
SNB-75 = tested on: SNB-75
OVCAR-5 = tested on: OVCAR-5
OVCAR-8 = tested on: OVCAR-8
U-251 = tested on: U-251
EKVX = tested on: EKVX
SK-MEL-2 = tested on: SK-MEL-2
CAKI-1 = tested on: CAKI-1

SMILES	GI50 (A549)	GI50 (MCF7)	GI50 (NCI-H226)	GI50 (NCI-H522)	GI50 (CCRF-CEM)	GI50 (MOLT-4)	GI50 (NCI-H23)	GI50 (DU-145)	GI50 (NCI/ADR-RES)	GI50 (M14)	GI50 (SW-620)	GI50 (Hs-578T)	GI50 (SNB-75)	GI50 (OVCAR-5)	GI50 (OVCAR-8)	GI50 (U-251)	GI50 (EKVX)	GI50 (SK-MEL-2)	GI50 (CAKI-1)
CC(C)=CCNc1ncnc2c1ncn2CCC#N	> 100000 nM (inactive)	> 100000 nM (inactive)	> 100000 nM (inactive)	> 100000 nM (inactive)	> 100000 nM (inactive)	> 100000 nM (inactive)	> 100000 nM (inactive)	> 100000 nM (inactive)	> 100000 nM (inactive)	> 100000 nM (inactive)	> 100000 nM (inactive)	> 100000 nM (inactive)	19800 nM (inactive)	> 100000 nM (inactive)	> 100000 nM (inactive)	> 100000 nM (inactive)			
[N-]=[N+]=NC1(N=[N+]=[N-])C(=O)NN=C(c2ccccc2)C1=O (centres undefined)	> 100000 nM (inactive)	62700 nM (inactive)	> 100000 nM (inactive)	> 100000 nM (inactive)	32200 nM (inactive)	28800 nM (inactive)	> 100000 nM (inactive)	> 100000 nM (inactive)	> 100000 nM (inactive)	> 100000 nM (inactive)	50900 nM (inactive)	> 100000 nM (inactive)	> 100000 nM (inactive)		82200 nM (inactive)	> 100000 nM (inactive)	> 100000 nM (inactive)		
CC1=C(N2CC2)C(=O)c2ccccc2C1=O	566 nM (active)	249 nM (active)	2060 nM (inactive)	444 nM (active)	1190 nM (inactive)	1110 nM (active)		116 nM (active)	1060 nM (active)	1220 nM (inactive)	185 nM (active)	1360 nM (inactive)	462 nM (active)	402 nM (active)	506 nM (active)	895 nM (active)	136 nM (active)	1540 nM (inactive)	556 nM (active)
COc1ccc(C(C)NNC(=O)c2cc[n+]([BH2-]C#N)cc2)c(OC)c1 (centres undefined)	> 100000 nM (inactive)	> 100000 nM (inactive)	> 100000 nM (inactive)	> 100000 nM (inactive)	> 100000 nM (inactive)	> 100000 nM (inactive)		> 100000 nM (inactive)	> 100000 nM (inactive)	> 100000 nM (inactive)	> 100000 nM (inactive)	> 100000 nM (inactive)	> 100000 nM (inactive)	> 100000 nM (inactive)	> 100000 nM (inactive)	> 100000 nM (inactive)	> 100000 nM (inactive)	> 100000 nM (inactive)	> 100000 nM (inactive)
CC(=O)O[C@H]1CC2C(C3CCC(C(C)CCC(N)=O)[C@]31C)[C@H](OC(C)=O)C[C@@H]1CC3(CC[C@]21C)OOC1(CC[C@]2(C)C4C[C@H](OC(C)=O)[C@]5(C)C(C(C)CCC(N)=O)CCC5C4[C@H](OC(C)=O)C[C@@H]2C1)OO3 (some centres undefined)	1430 nM (inactive)	1580 nM (inactive)	1330 nM (inactive)	2180 nM (inactive)		1110 nM (active)	1490 nM (inactive)	1730 nM (inactive)	2090 nM (inactive)	1950 nM (inactive)	2630 nM (inactive)	2170 nM (inactive)	1560 nM (inactive)	1690 nM (inactive)	1550 nM (inactive)	1600 nM (inactive)	1670 nM (inactive)	1840 nM (inactive)	1880 nM (inactive)
C/C(=N\N=C(/S)SCc1ccccc1)c1ccccn1	170 nM (active)	< 10 nM (active)	< 10 nM (active)	311 nM (active)	< 10 nM (active)	< 10 nM (active)	< 10 nM (active)	1540 nM (inactive)	< 10 nM (active)	< 26.7 nM (active)	< 10 nM (active)	2620 nM (inactive)	2920 nM (inactive)		< 10 nM (active)	< 19.2 nM (active)	< 10 nM (active)	1270 nM (inactive)	< 50.4 nM (active)

From ChEMBL document CHEMBL1201862, “PubChem BioAssay data set” (2004)
